This note sets out measurements from patent publication US11938120B1 (priority 2023, dated 2024).

Molecules are shown by their SMILES. Converted amounts (≈) assume the structure as drawn.

Series [1] has as its system Mycobacterium tuberculosis H37Rv (ATCC 25177). Put plainly: Anti-tubercular activity, colorimetric Resazurin Microplate Assay (REMA), susceptible strain. Format: cell-based. The note with it: 192 h, Middlebrook 7H9 broth, 37° C., 8 days of incubation then resazurin overnight, read-out: MIC (μg/mL) Susceptible (H37Rv). On the technique in general: Alamar Blue is a resazurin reagent that responds to reducing activity.

For the compound `CCOC(=O)c1cc(C(=O)c2ccc(C)cc2)n2c1ccc1cc(C)ccc12`, the melting point (as a rule, the temperature, or range, at which the solid turns liquid) fell in the range of 155 to 156 °C.

Turning to `CCOC(=O)c1cc(C(=O)c2ccccc2)n2c1ccc1cc(C)ccc12`, the melting point was 139 to 140 °C.

As for `CCOC(=O)c1cc(C(=O)c2ccc(F)cc2)n2c1ccc1cc(C)ccc12`, the melting point was in the range of 163 to 164 °C.

In the case of `CCOC(=O)c1cc(C(=O)c2ccccc2[N+](=O)[O-])n2c1ccc1cc(C)ccc12` [Compound 4d, Ethyl 7-methyl-1-(2-nitrobenzoyl)pyrrolo[1,2-a]quinoline-3-carboxylate], the melting point was 174 to 175 °C. Also, the MIC in series [1] was determined as 8 µg/mL (≈ 19.9 µM).

Take `CCOC(=O)c1cc(C(=O)c2ccc(Br)cc2)n2c1ccc1cc(C)ccc12` [Compound 4e, Ethyl 1-(4-bromobenzoyl)-7-methylpyrrolo[1,2-a]quinoline-3-carboxylate]: the melting point is 180 to 181 °C. Also, the MIC in series [1] stood at 32 µg/mL (≈ 73.3 µM).

Consider `CCOC(=O)c1cc(C(=O)c2cc(C(F)(F)F)cc(C(F)(F)F)c2)n2c1ccc1cc(C)ccc12` [Compound 4f, Ethyl 1-(3,5-bis(trifluoromethyl)benzoyl)-7-methylpyrrolo[1,2-a]quinoline-3-carboxylate], for which the melting point is 223 to 224 °C. Besides, the MIC in series [1] worked out at 16 µg/mL (≈ 32.4 µM).
